The values that follow come from ChEMBL document CHEMBL3991601, “The target landscape of clinical kinase drugs” (Science, 2017).

Calls of active or inactive are those of the source. For most assays here, no stated cut-off is given here; in the data, actives have a measured Kd and inactives only a lower limit.

For experiment [1], the target named is Cyclin-dependent kinase 13 (Homo sapiens, UniProt Q14004).
The target in experiment [2] is Mitogen-activated protein kinase kinase kinase 20 (Homo sapiens, UniProt Q9NYL2).
Chain of Mitogen-activated protein kinase kinase kinase 20 (Q9NYL2 whole entry): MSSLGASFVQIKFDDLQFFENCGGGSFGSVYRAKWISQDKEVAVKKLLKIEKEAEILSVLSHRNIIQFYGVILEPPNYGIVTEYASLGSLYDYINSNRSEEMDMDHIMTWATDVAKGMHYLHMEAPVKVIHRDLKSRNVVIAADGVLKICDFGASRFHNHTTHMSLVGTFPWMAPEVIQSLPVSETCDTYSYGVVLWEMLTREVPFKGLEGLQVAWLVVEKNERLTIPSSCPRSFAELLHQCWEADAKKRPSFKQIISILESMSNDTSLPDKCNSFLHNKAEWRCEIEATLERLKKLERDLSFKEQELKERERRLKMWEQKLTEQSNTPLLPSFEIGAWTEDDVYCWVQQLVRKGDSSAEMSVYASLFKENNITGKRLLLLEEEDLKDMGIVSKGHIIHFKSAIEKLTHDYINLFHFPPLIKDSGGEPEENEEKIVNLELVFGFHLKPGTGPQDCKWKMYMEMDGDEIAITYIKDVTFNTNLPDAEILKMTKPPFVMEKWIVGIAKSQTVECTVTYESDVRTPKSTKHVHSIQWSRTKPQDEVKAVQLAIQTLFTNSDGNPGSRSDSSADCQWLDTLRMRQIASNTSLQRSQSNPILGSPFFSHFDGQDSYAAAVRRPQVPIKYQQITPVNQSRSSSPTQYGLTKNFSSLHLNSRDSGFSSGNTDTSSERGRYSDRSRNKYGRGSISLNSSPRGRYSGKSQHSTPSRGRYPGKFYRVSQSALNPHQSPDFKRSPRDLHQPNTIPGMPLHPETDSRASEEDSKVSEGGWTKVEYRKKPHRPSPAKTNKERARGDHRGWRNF
Experiment [3] has as its target T1, Mitogen-activated protein kinase kinase kinase 5 (Homo sapiens, UniProt Q99683).
T1 sequence (Q99683 whole entry): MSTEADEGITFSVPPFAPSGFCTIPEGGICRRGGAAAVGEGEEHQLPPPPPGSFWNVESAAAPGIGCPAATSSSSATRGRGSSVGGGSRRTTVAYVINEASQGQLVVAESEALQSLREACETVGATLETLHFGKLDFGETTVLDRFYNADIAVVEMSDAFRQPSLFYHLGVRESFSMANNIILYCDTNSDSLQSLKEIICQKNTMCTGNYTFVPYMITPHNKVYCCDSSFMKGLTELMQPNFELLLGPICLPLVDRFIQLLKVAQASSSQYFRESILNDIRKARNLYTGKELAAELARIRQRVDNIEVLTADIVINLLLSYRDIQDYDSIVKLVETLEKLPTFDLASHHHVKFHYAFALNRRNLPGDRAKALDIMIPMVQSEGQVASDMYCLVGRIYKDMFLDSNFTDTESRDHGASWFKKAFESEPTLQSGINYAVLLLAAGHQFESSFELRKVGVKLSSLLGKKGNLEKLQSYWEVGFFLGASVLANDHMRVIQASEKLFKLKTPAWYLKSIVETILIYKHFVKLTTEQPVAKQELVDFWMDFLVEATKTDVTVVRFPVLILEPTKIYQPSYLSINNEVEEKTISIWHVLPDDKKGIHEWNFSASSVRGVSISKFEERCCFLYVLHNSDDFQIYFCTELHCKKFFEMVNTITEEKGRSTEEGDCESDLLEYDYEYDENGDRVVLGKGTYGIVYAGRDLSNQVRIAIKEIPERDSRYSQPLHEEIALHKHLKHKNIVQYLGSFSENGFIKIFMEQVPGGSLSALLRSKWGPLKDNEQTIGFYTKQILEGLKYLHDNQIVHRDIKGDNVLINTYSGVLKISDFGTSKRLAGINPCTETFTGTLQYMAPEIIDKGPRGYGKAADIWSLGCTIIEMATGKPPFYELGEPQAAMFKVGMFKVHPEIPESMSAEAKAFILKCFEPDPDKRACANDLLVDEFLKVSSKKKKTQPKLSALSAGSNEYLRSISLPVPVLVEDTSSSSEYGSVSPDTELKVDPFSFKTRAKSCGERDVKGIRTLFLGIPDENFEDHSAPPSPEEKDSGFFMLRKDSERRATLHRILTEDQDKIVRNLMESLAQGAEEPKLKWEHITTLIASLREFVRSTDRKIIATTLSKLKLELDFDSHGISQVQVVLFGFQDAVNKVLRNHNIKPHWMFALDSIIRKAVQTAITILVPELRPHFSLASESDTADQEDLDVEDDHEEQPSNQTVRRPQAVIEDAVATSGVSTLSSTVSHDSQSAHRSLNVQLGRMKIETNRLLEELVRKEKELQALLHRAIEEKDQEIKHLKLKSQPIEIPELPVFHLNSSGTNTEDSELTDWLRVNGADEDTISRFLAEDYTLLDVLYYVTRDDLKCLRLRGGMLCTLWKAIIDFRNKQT

Experiment [4] has as its target Tyrosine-protein kinase HCK (Homo sapiens, UniProt P08631).
The target in experiment [5] is Receptor-interacting serine/threonine-protein kinase 3 (Homo sapiens, UniProt Q9Y572).
Chain of Receptor-interacting serine/threonine-protein kinase 3 (Q9Y572 whole entry): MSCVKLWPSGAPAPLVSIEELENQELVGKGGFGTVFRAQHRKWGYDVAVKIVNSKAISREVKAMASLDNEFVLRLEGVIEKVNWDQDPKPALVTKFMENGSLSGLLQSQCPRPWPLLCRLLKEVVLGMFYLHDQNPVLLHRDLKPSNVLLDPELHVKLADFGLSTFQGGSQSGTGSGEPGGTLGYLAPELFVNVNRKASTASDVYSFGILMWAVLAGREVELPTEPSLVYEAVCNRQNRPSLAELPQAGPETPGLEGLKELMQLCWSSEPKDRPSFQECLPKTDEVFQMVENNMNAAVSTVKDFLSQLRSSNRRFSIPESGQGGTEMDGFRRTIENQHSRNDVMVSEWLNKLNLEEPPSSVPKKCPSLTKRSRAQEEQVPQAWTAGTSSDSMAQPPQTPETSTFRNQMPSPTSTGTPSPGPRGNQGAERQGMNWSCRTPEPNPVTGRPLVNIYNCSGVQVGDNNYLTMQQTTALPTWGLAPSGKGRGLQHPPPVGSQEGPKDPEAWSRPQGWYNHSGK
The target in experiment [6] is T2, Glycogen phosphorylase, brain form (Homo sapiens, UniProt P11216).
T2 sequence (P11216 whole entry): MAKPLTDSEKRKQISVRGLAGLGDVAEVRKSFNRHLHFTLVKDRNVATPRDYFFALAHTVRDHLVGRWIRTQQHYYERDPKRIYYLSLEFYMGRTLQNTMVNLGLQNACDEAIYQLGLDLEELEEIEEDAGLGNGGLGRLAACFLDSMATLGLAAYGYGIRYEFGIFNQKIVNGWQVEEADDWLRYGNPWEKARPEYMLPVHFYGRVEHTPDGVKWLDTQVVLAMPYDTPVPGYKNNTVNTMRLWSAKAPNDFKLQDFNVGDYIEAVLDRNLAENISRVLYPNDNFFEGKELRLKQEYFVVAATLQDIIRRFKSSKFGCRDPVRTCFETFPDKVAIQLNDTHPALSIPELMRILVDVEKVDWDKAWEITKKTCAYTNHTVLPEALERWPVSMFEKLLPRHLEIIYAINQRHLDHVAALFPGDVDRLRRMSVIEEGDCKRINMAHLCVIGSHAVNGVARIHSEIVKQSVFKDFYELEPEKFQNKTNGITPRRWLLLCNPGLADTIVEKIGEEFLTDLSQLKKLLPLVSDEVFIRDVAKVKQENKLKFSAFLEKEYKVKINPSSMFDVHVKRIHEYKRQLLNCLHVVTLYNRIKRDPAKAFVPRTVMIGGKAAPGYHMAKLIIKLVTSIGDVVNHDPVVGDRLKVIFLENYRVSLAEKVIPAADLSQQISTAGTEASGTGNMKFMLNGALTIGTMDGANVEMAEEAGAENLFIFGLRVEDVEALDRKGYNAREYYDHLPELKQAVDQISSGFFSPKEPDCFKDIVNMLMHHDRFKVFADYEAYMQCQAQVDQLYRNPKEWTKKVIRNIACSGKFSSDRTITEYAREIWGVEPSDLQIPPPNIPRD

Chain of Cyclin-dependent kinase 13 (Q14004 whole entry): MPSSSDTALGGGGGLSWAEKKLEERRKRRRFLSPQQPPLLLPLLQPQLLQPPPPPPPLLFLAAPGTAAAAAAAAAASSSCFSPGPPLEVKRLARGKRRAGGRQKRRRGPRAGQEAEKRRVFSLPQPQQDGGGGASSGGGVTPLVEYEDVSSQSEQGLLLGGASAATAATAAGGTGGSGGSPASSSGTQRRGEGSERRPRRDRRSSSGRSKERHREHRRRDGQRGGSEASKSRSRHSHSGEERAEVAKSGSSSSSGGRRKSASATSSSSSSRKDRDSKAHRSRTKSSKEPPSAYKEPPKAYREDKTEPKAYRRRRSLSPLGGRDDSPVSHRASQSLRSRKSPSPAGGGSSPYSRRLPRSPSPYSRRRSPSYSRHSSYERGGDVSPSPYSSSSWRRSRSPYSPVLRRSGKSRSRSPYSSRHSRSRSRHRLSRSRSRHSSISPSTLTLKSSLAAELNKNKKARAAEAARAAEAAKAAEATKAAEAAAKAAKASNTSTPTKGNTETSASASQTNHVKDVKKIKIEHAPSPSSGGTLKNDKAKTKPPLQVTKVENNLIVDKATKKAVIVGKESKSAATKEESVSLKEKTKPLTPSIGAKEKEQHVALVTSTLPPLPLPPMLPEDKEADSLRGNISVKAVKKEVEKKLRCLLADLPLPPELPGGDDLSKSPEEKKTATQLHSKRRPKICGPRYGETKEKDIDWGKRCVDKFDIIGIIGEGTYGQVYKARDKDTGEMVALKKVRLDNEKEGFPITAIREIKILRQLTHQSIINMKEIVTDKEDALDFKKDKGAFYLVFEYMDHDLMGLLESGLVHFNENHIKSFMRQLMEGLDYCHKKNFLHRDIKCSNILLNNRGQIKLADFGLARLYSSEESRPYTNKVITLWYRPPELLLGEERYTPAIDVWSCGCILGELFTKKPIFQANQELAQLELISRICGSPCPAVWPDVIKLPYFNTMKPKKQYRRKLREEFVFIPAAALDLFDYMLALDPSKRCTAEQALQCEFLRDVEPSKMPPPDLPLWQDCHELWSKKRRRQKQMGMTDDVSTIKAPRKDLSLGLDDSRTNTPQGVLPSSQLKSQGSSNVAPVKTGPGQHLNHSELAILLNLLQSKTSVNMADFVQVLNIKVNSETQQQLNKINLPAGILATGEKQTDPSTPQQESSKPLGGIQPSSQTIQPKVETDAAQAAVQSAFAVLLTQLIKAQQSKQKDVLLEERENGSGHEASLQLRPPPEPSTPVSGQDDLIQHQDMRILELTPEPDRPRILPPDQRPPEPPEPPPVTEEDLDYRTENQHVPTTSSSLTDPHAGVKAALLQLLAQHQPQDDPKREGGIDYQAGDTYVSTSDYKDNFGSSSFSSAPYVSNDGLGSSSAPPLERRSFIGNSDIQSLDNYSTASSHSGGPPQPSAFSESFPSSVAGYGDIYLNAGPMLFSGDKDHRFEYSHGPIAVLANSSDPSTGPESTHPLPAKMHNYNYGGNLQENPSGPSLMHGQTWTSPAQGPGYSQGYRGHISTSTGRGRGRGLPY
Chain of Tyrosine-protein kinase HCK (P08631 whole entry): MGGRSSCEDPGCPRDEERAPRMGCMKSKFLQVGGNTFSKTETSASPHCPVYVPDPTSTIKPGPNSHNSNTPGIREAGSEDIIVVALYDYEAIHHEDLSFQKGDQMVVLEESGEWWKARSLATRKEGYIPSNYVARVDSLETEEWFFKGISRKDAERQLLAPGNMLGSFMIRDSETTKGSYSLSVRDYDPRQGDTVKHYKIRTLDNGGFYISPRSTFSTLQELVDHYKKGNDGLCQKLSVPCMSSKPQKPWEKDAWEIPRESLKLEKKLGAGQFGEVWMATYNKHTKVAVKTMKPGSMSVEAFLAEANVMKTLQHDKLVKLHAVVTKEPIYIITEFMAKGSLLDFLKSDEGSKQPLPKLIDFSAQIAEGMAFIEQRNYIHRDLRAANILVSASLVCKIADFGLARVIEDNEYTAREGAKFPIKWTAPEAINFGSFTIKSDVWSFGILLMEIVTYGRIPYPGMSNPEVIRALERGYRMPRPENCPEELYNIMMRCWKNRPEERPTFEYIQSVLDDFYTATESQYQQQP

The term Kd denotes the equilibrium constant for the complex coming apart. As for `CNC(=O)c1cc(Oc2ccc(NC(=O)Nc3ccc(Cl)c(C(F)(F)F)c3)c(F)c2)ccn1` [REGORAFENIB], the Kd in experiment [1] is > 30 µM (inactive); in experiment [2] it was 0.274 µM (active); in experiment [3] it was > 30 µM (inactive); in experiment [4], > 30 µM (inactive); in experiment [5] it was 0.368 µM (active); in experiment [6], > 30 µM (inactive).
For `CCCS(=O)(=O)Nc1ccc(F)c(C(=O)c2c[nH]c3ncc(-c4ccc(Cl)cc4)cc23)c1F` [VEMURAFENIB], the Kd in experiment [1] is > 30 µM (inactive); in experiment [2], 0.316 µM (active); in experiment [3] it was > 30 µM (inactive); in experiment [4], > 30 µM (inactive); in experiment [5], 2.08 µM (active); in experiment [6], > 30 µM (inactive).
As to `N[C@@H]1CCCN(c2c(/C=C3\SC(=O)NC3=O)cccc2-c2ccccc2)C1`, the Kd in experiment [1], in experiment [2], in experiment [3], in experiment [4], in experiment [5] and in experiment [6] was > 30 µM (inactive) throughout.
With `O=C(O)[C@]1(Cc2cccc(Nc3nccs3)n2)CC[C@@H](Oc2cccc(Cl)c2F)CC1` [MK-5108], the Kd in experiment [1], in experiment [2], in experiment [3], in experiment [4], in experiment [5] and in experiment [6] was > 30 µM (inactive) in each case.
For the molecule `COc1cc(OC)c(/C=C/S(=O)(=O)Cc2ccc(OC)c(NCC(=O)O)c2)c(OC)c1` [RIGOSERTIB], the Kd in experiment [1], in experiment [2], in experiment [3], in experiment [4], in experiment [5] and in experiment [6] was > 30 µM (inactive) throughout.
Regarding `CC[C@@H]1C(=O)N(C)c2cnc(Nc3ccc(C(=O)N[C@H]4CC[C@H](N5CCN(CC6CC6)CC5)CC4)cc3OC)nc2N1C(C)C` [VOLASERTIB], the Kd in experiment [1], in experiment [2], in experiment [3], in experiment [4], in experiment [5] and in experiment [6] was > 30 µM (inactive) throughout.
`Cc1cc(-c2cc(O)ccc2Cl)cc2nnc(Nc3ccc(OCCN4CCCC4)cc3)nc12`: the Kd in experiment [1] was > 30 µM (inactive); in experiment [2], > 30 µM (inactive); in experiment [3], > 30 µM (inactive); in experiment [4] it was > 30 µM (inactive); in experiment [5], 0.003 µM (active); in experiment [6], > 30 µM (inactive).
For the molecule `OCCn1cc(-c2cnc3nnn(Cc4ccc5ncccc5c4)c3n2)cn1` [PF-04217903], the Kd in experiment [1], in experiment [2], in experiment [3], in experiment [4], in experiment [5] and in experiment [6] was > 30 µM (inactive) in each case.
Consider `CCn1c(=O)c(-c2cc[nH]n2)cc2c(C)nc(N)nc21` [VOXTALISIB], for which the Kd in experiment [1], in experiment [2], in experiment [3], in experiment [4], in experiment [5] and in experiment [6] was > 30 µM (inactive) throughout.
For the molecule `Cn1ncc(Cl)c1-c1cc(C(=O)N[C@H](CN)Cc2cccc(F)c2)sc1Cl` [AFURESERTIB], the Kd in experiment [1], in experiment [2], in experiment [3], in experiment [4], in experiment [5] and in experiment [6] was > 30 µM (inactive) throughout.
In the case of `Cc1cc2c(F)c(Oc3ncnn4cc(OC[C@@H](C)OC(=O)[C@H](C)N)c(C)c34)ccc2[nH]1` [BRIVANIB ALANINATE], the Kd in experiment [1], in experiment [2], in experiment [3], in experiment [4], in experiment [5] and in experiment [6] was > 30 µM (inactive) each time.
`CN1CCC(CNc2ccc3ncc(-c4cccc(OC(F)(F)F)c4)n3n2)CC1` [SGI-1776]: the Kd in experiment [1], in experiment [2], in experiment [3], in experiment [4], in experiment [5] and in experiment [6] was > 30 µM (inactive) throughout.
For `CC[C@H](Nc1ncnc2[nH]cnc12)c1nc2cccc(F)c2c(=O)n1-c1ccccc1` [IDELALISIB], the Kd in experiment [1], in experiment [2], in experiment [3], in experiment [4], in experiment [5] and in experiment [6] was > 30 µM (inactive) each time.
Turning to `O=c1sn(-c2cccc3ccccc23)c(=O)n1Cc1ccccc1` [TIDEGLUSIB], the Kd in experiment [1], in experiment [2], in experiment [3], in experiment [4], in experiment [5] and in experiment [6] was > 30 µM (inactive) each time.
Consider `COC(=O)[C@@]1(O)C[C@H]2O[C@]1(C)n1c3ccccc3c3c4c(c5c6ccccc6n2c5c31)C(=O)NC4` [K-252A], for which the Kd was > 30 µM (inactive) in experiment [1]; > 30 µM (inactive) in experiment [2]; 0.182 µM (active) in experiment [3]; > 30 µM (inactive) in experiment [4]; > 30 µM (inactive) in experiment [5]; > 30 µM (inactive) in experiment [6].
As for `O=C(c1ccc(F)c(F)c1Nc1ccc(I)cc1F)N1CC(O)([C@@H]2CCCCN2)C1` [COBIMETINIB], the Kd in experiment [1], in experiment [2], in experiment [3], in experiment [4], in experiment [5] and in experiment [6] was > 30 µM (inactive) throughout.
On to `Cc1ccc(S(=O)(=O)Nc2nc3ccccc3nc2Nc2ccc3nsnc3c2)cc1`, for which the Kd in experiment [1], in experiment [2], in experiment [3], in experiment [4], in experiment [5] and in experiment [6] was > 30 µM (inactive) each time.
With `Cn1cc(-c2ccc(F)c(C(F)(F)F)c2)nc1C1CCN(c2ncnc3[nH]ncc23)CC1` [LY-2584702], the Kd in experiment [1], in experiment [2], in experiment [3], in experiment [4], in experiment [5] and in experiment [6] was > 30 µM (inactive) in each case.
